Results from ChEMBL document CHEMBL3286291, “Synthesis and biological evaluation of substituted 4,6-diarylpyrimidines and 3,5-diphenyl-4,5-dihydro-1H-pyrazoles as anti-tubercular agents” (Bioorg Med Chem Lett, 2014).

What was measured:
[1] = tested on: Mycobacterium tuberculosis; assay: Antitubercular activity against Mycobacterium tuberculosis H37Rv by microplate alamar blue assay; format: functional
[2] = Cytotoxicity against human THP1 cells by MTT assay; format: cell-based; conditions: THP-1 cells
[3] = Selectivity index, ratio of CC50 for human THP1 cells to MIC for Mycobacterium tuberculosis H37Rv; format: toxicity, cell-based; conditions: THP-1 cells, read-out: Selectivity Index

SMILES | MIC [1] | CC50 [2] [µM] | selectivity ratio [3]
CC1=NN(C(=O)c2cc(-c3ccc(Cl)cc3)n[nH]2)C(=O)/C1=N/Nc1cccc(F)c1 | 0.35 µg/mL |  | 
CCSc1nc(Cl)c(C#N)c(-c2ccc(F)cc2F)n1 | 0.78 µg/mL |  | 
COc1cc(-c2cc(-c3ccc(Br)cc3)nc(N)n2)cc(OC)c1OC | 50 µM | 100 | 
COc1cc(C2CC(c3ccc(Br)cc3)=NN2C(C)=O)cc(OC)c1OC (stereo unspecified) | 12.5 µM | 100 | 8
COc1ccc(-c2cc(-c3cc(OC)c(OC)c(OC)c3)nc(-c3ccccn3)n2)cc1 | 25 µM | 50 | 
COc1cc(-c2cc(-c3ccc(Cl)cc3)nc(N)n2)cc(OC)c1OC | 50 µM |  | 
COc1ccc(-c2cc(-c3cc(OC)c(OC)c(OC)c3)nc(-c3cccnc3)n2)cc1 | 100 µM | 200 | 
COc1cc(C2CC(c3ccc4c(c3)OCO4)=NN2C(C)=O)cc(OC)c1OC (stereo unspecified) | 100 µM | 200 | 
COc1ccc(C2=NN(C(C)=O)C(c3cc(OC)c(OC)c(OC)c3)C2)cc1 (stereo unspecified) | 50 µM | 200 | 4
COc1ccc(C2CC(c3ccc4c(c3)OCO4)=NN2C(C)=O)cc1 (stereo unspecified) | 100 µM | 200 | 
COc1cc(-c2cc(-c3cc(OC)c(OC)c(OC)c3)nc(N)n2)cc(OC)c1OC | > 100 µM |  | 
COc1ccc(-c2cc(-c3ccc4c(c3)OCO4)nc(N)n2)cc1 | > 100 µM |  | 
COc1cc(C2=NN(C(C)=O)C(c3cc(OC)c(OC)c(OC)c3)C2)cc(OC)c1OC (stereo unspecified) | > 100 µM | 200 | 
COc1cc(-c2cc(-c3cc(OC)c(OC)c(OC)c3)nc(-c3ccncc3)n2)cc(OC)c1OC | > 100 µM |  | 
COc1cc(-c2cc(-c3ccc(F)cc3)nc(N)n2)cc(OC)c1OC | 50 µM |  | 
COc1cc(-c2cc(-c3ccc4c(c3)OCO4)nc(N)n2)cc(OC)c1OC | > 100 µM | 200 | 
COc1cc(C2CC(c3ccc(Cl)cc3)=NN2C(C)=O)cc(OC)c1OC (stereo unspecified) | 12.5 µM | 100 | 8
COc1ccc(-c2cc(-c3cc(OC)c(OC)c(OC)c3)nc(-c3ccncc3)n2)cc1 | > 100 µM |  | 
COc1cc(-c2cc(-c3ccc4c(c3)OCO4)nc(-c3ccncc3)n2)cc(OC)c1OC | > 100 µM | 400 | 
COc1ccc(-c2cc(-c3cc(OC)c(OC)c(OC)c3)nc(N)n2)cc1 | 25 µM | 100 | 4
